The source made the active and inactive calls. No cut-off for these calls is given here.
Key:
Histone deacetylase 8 = target: T1, Histone deacetylase 8 (Homo sapiens, UniProt Q9BY41); assay: Inhibition of HDAC8 (unknown origin) by SAMDI high throughput mass spectrometry
T1 sequence (Q9BY41 whole entry): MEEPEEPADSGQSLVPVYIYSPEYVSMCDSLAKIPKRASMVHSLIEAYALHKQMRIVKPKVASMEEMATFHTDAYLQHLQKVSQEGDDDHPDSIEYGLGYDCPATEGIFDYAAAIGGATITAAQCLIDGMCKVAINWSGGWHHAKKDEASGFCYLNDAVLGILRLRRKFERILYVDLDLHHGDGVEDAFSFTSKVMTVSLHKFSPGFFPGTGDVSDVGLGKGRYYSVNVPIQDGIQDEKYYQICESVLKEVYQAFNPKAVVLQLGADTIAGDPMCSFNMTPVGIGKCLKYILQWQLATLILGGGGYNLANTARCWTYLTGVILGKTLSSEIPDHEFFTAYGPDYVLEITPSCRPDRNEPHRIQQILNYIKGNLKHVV

[1] = Binding affinity to Zinc ion assessed as metal chelating activity
[2] = Binding affinity to Zinc ion assessed as metal chelating activity at approximately 1 uM

Structure (SMILES)	IC50 (Histone deacetylase 8)	also measured
COc1ccc(Cn2ccc3ccc(-c4noc(C(F)(F)F)n4)cc32)cc1	> 1000 µM	
COc1ccc(Cn2ccc3ccc(NC(=O)c4ccccc4N)cc32)cc1	130 µM	
COc1ccc(Cn2ccc3ccc(NC(=O)c4ccccn4)cc32)cc1	490 µM	
COc1ccc(Cn2ccc3ccc(C(=O)N/N=C\c4ccccc4O)cc32)cc1	> 1000 µM	
COc1ccc(Cn2ccc3ccc(NC(=O)c4ccccc4O)cc32)cc1	360 µM	
NC(Cc1ccc(Cl)cc1Cl)C(=O)N1Cc2ccccc2C1 (stereo not given)	7.9 µM	Activity [1]: inactive
COc1ccc(Cn2ccc3ccc(-c4nn[nH]n4)cc32)cc1	> 1000 µM	
COc1ccc(Cn2ccc3ccc(C(=O)Nc4ccccc4N)cc32)cc1	150 µM	
COc1ccc(Cn2ccc3ccc(C(=O)Nc4ccccc4O)cc32)cc1	220 µM	
COc1ccc(Cn2ccc3ccc(NC(=O)c4ccccc4SC)cc32)cc1	340 µM	
COc1ccc(Cn2ccc3ccc(C(=O)NO)cc32)cc1		Activity [2]: Active
COc1ccc(Cn2ccc3ccc(C(=O)Nc4ccccc4SC)cc32)cc1	360 µM	

More lines, main results first:

IC50 (Histone deacetylase 8)	Structure (SMILES)	also measured
320 µM	COc1ccc(Cn2ccc3ccc(C(=O)NS(=O)(=O)N(C)C)cc32)cc1	
570 µM	COc1ccc(Cn2ccc3ccc(C(=O)C(F)(F)F)cc32)cc1	
170 µM	COc1ccc(Cn2ccc3ccc(C(=O)NCCO)cc32)cc1	
340 µM	COc1ccc(Cn2ccc3ccc(/C(N)=N/O)cc32)cc1	
240 µM	CCC(=O)Cc1ccc2ccn(Cc3ccc(OC)cc3)c2c1	
890 µM	COc1ccc(Cn2ccc3ccc(C(=O)NCC(C)O)cc32)cc1 (stereo not given)	
330 µM	COc1ccc(Cn2ccc3ccc(-c4noc(=S)[nH]4)cc32)cc1	
210 µM	COc1ccc(Cn2ccc3ccc(C(=O)c4nccs4)cc32)cc1	
> 1000 µM	COc1ccc(Cn2ccc3ccc(C(=O)NS(C)(=O)=O)cc32)cc1	
140 µM	COc1ccc(Cn2ccc3ccc(-c4noc(=O)[nH]4)cc32)cc1	
200 µM	COc1ccc(Cn2ccc3ccc(C(=O)c4cc(C)on4)cc32)cc1	
120 µM	CCC(=O)c1ccc2ccn(Cc3ccc(OC)cc3)c2c1	

Source: ChEMBL document CHEMBL5576062 (Bioorg Med Chem Lett, 2024)
